Key:
[1] = test system: albino Swiss mice; test: Passive avoidance test in mice; type: in vivo, mouse; settings: compared to the vehicle control; BacoMind 40, 60 and 80 mg/kg p.o. 7 days; piracetam 100 mg/kg i.p.; scopolamine 0.3 mg/kg i.p.
Method: (§1) Forty two albino Swiss mice (20-22 g) of either sex obtained from National Toxicology Centre, Pune were used for the study. The animals were acclimatized for a week and maintained under standard laboratory conditions, given free access to feed (Source: Laboratory prepared) and water, ad libitum.
Six albino Swiss mice of either sex were randomly allotted to each group. Group I served as the vehicle control. Group II, III and IV received BacoMind™ orally at the doses of 40, 60 and 80 mg/kg for 7 days. Piracetam was administered to group V (100 mg/kg, i.p, single dose, on 7th day 20 min before first trial) and served as the reference standard control. Group VI was administered with scopolamine (0.3 mg/kg, i.p, single dose, on 7th day 20 min before first trial) and served as the amnesia control. Group VII was administered both with BacoMind™ (60 mg/kg, p.o, for 7 days) and scopolamine (0.3 mg/kg, i.p, single dose, on 7th day 30 min after BacoMind™ treatment). Mice were placed individually on the electric grid and allowed to explore for one minute. A stimulus of 20 V with AC current of 5 mA was given and latency to reach SFZ was recorded for three consecutive times and considered as basal reading. After 1 h of the first trial, each animal was placed on the electric grid again and the latency to reach SFZ and the mistakes (descents) the animal made in 15 min were recorded and considered as parameters for acquisition and retention respectively.

[2] = test system: albino Swiss mice; test: Elevated plus maze (EPM) test in mice; type: in vivo, mouse; settings: scopolamine 0.3 mg/kg i.p. single dose, compared to the vehicle control
Method: as §1
Six albino Swiss mice of either sex were randomly allotted to each group. Group I served as the vehicle control. […] Piracetam was administered to group V (100 mg/kg, i.p, single dose on 7th day, 30 min before recording transfer latency) and served as the reference standard control. Group VI was administered with scopolamine (0.3 mg/kg, i.p, single dose on 7th day, 30 min before recording transfer latency) and served as the amnesia control group. […] The mice were placed individually at the end of open arm of the EPM facing away from the center. The time taken by the mouse to move into the enclosed arm was noted as transfer latency (TL). The mice were treated with the test substance/drugs as shown in the study design. […] After determination of the TL, mice were allowed to explore the maze for 2 min and then transferred to their home cages. The TL was again measured after 24 h i.e on […]. The TL was expressed as inflexion ratio.

| SMILES | latency to reach SFZ [1] | number of mistakes in 15 min [1] | inflexion ratio [2] |
| --- | --- | --- | --- |
| NC(=O)CN1CCCC1=O [piracetam, Piracetam] | significantly decreased | significantly decreased |  |
| CN1[C@@H]2C[C@@H](OC(=O)[C@H](CO)c3ccccc3)C[C@H]1[C@@H]1O[C@@H]12 [scopolamine] | significant increase |  | significant decrease |
